{"source": "patent US20060246131A1", "about": "“Use of metformin to counteract weight gain associated with psychotropic medications” (priority 2005, published 2006)", "key": {"[1]": {"conditions": "person treated with GEODON; cited from earlier work"}, "[2]": {"conditions": "cited from earlier work"}, "[3]": {"test": "Case study: mood and behavior of a patient with Bipolar Affective Disorder NOS on aripiprazole", "assay_type": "in vivo, human", "conditions": "person, BPAD NOS; aripiprazole 5 mg once daily; 2 weeks later", "text": "A person presented with behavioral problems.\nThe time of onset for childhood BPAD is frequently during the later years of the latency period, and typically includes rapid cycling, with disturbances in sleep, behavioral issues including aggression, grandiosity, and hyper-sexuality. At the time of evaluation, it was difficult to know if the patient also had co-occurring ADHD, combined subtype and Oppositional Defiant Disorder. Bipolar Affective Disorder, NOS appeared to be the more parsimonious diagnosis.\nAdditionally they were asked to keep a mood chart."}, "[4]": {"conditions": "metformin 500 mg twice daily together with aripiprazole, over a 3-month period"}}}
{"molecule": "O=C1Cc2cc(CCN3CCN(c4nsc5ccccc45)CC3)c(Cl)cc2N1", "note": "[GEODON]", "values": [{"measurement": "weight gain", "setting": "[1]", "value": "significant weight gain"}]}
{"molecule": "CN(C)C(=N)NC(=N)N.Cl", "note": "[Metformin hydrochloride, N,N-dimethylimidocarbonimidic diamide hydrochloride]", "values": [{"measurement": "pH of a 1% aqueous solution", "setting": "[2]", "value": 6.68}]}
{"molecule": "O=C1CCc2ccc(OCCCCN3CCN(c4cccc(Cl)c4Cl)CC3)cc2N1", "note": "[aripiprazole, 7-[4-[4-(2,3-dichlorophenyl)-1-piperazinyl]butoxy]-3,4-dihydrocarbostyril]", "values": [{"measurement": "behavioral outcome on return visit", "setting": "[3]", "value": "much more settled, with fewer outbursts, and no behavioral concerns"}]}
{"molecule": "CN(C)C(=N)N=C(N)N", "note": "[metformin, N,N-dimethylimidocarbonimidic diamide]", "values": [{"measurement": "Body Mass Index (BMI) after treatment", "setting": "[4]; BMI from 24.9", "value": 22.6}, {"measurement": "decrease in body weight", "setting": "[4]", "value": "seven"}]}
